Measurements from a melting point compilation (Tetko et al.).

N#Cc1ccc(N2CCOCC2)nc1 showed a melting point of 123 to 125 °C.
COC(=O)C(N)c1cccnc1 (stereo not drawn) gave a melting point of 61 to 63 °C.
Work on Cc1sc2nc(S)n(C)c(=O)c2c1C yielded a melting point of 288 to 290 °C.
In the case of O=c1[nH]c(CCl)nc2sc3c(c12)CCC3, the melting point is reported as 230 to 238 °C.
Work on CCc1ccc(C=CS(=O)(=O)Cl)cc1 yielded a melting point of 66 to 68 °C.
In the case of N#Cc1ccc(C=C2CCn3c2nc2cc(C(=O)O)ccc2c3=O)cc1, the melting point is reported as 300 to 302 °C.
Compound O=C(Nc1cc[nH]n1)c1ccccc1 has a melting point of 161 to 163 °C.
In the case of CC(Cl)C(=O)Nc1ccc(Cl)cn1 (stereo not drawn), the melting point is reported as 88 to 90 °C.
In the case of Cc1ccc(C(=O)c2cccc(S(C)(=O)=O)c2)c(C)c1, the melting point is reported as 83 to 85 °C.
CCCC(NC(=O)c1ccccc1)C(N)=S (stereo not drawn) showed a melting point of 202 to 204 °C.
In the case of CC1CCCC(=O)N1 (stereo not drawn), the melting point is reported as 87 to 89 °C.
Compound COc1ccc(-c2noc(CCCC(=O)O)n2)cc1 has a melting point of 109 to 111 °C.
For O=C(O)c1cn(Cc2ccccc2)c2ccccc12, the melting point was 192 to 194 °C.
Compound COc1ccc(Cl)cc1C(C)=O has a melting point of 33 to 35 °C.
For COC(=O)COc1ccc(N)cc1Cl, the melting point was 66 to 68 °C.
Compound NCCNC(CC(=O)O)C(N)=O (stereo not drawn) has a melting point of 161 to 163 °C.
For Cn1c(=O)n(C)c2cc(S(N)(=O)=O)c(Br)cc21, the melting point was 314 to 316 °C.
With O=C(O)Cc1ccc([N+](=O)[O-])cc1Br the melting point was 164 to 166 °C.
Work on Cc1ccc(-n2cnnn2)cc1NC(=O)OCC(F)(F)F yielded a melting point of 199 to 201 °C.
Compound O=C(O)c1ccccc1SCCO has a melting point of 125 to 127 °C.
O=C(O)c1ccccc1Sc1ccc(Br)cn1 showed a melting point of 183 to 185 °C.
Compound NC(CC(=O)Nc1ccc(F)cc1)=NO has a melting point of 142 to 144 °C.
Cc1c(C#N)c(NC(=O)CCl)n(Cc2ccc(F)cc2)c1C gave a melting point of 279 to 281 °C.
CN(C)c1c(N)n(C)c(=O)[nH]c1=O gave a melting point of 161 to 163 °C.
NC(=O)CCN1C(=O)NC2(CCCC2)C1=O showed a melting point of 150 to 152 °C.
O=c1cc(CCl)nc2ccc(Br)cn12 showed a melting point of 172 to 174 °C.
Work on CC1CCCCN1S(=O)(=O)c1ccc(C(=O)O)cc1 (stereo not drawn) yielded a melting point of 201 to 205 °C.
With O=C1CCCc2sc(Br)cc21 the melting point was 76 to 78 °C.
Work on O=C(CC1(C(=O)O)CCCC1)N1CCOCC1 yielded a melting point of 150 to 152 °C.
For N#CCc1ccc(OCC(=O)O)cc1, the melting point was 148 to 150 °C.
Work on Cc1cc(Cl)n2ncnc2n1 yielded a melting point of 220 to 222 °C.
Compound O=C(O)c1cnoc1-c1ccco1 has a melting point of 195 to 197 °C.
Work on CCC(=O)NCc1cc(S(N)(=O)=O)ccc1OC yielded a melting point of 119 to 121 °C.
For C=CC(=O)Nc1ccc(OC)cc1[N+](=O)[O-], the melting point was 124 to 126 °C.
O=C(NCCc1ccc(O)cc1)c1ccc(Cl)cc1 gave a melting point of 168 to 170 °C.
Clc1ccc(NCc2cccnc2)c(Cl)c1 showed a melting point of 76 to 78 °C.
Cn1c(N)c(C(=O)CCl)c(=O)[nH]c1=O gave a melting point of 356 to 358 °C.
Work on CC1CCN(CC(=O)O)CC1 yielded a melting point of 147 to 149 °C.
Nc1ccccc1CC(F)(F)F showed a melting point of 44 to 46 °C.
Work on COc1cc(C=O)cc(OC)c1OCC(N)=O yielded a melting point of 165 to 167 °C.
CCN(CC)C(=O)c1ccccc1N gave a melting point of 71 to 73 °C.
With CC(O)c1ccc(CN)cc1 (stereo not drawn) the melting point was 87 to 89 °C.
With O=C(O)COCCN1CCN(C(c2ccccc2)c2ccc(Cl)cc2)CC1 (stereo not drawn) the melting point was 224 to 226 °C.
In the case of CN(CC(=O)O)C1CCCC1O (stereo not drawn), the melting point is reported as 150 to 152 °C.
With NS(=O)(=O)c1cc(C(F)(F)F)ccc1Cl the melting point was 154 to 156 °C.
For Cc1nnc(N)o1, the melting point was 183 to 185 °C.
For O=C(O)c1ccc(OCC2CC2)cc1, the melting point was 254 to 256 °C.
Compound O=C(c1cccnc1)c1c[nH]c2ccccc12 has a melting point of 212 to 214 °C.
In the case of O=C(O)c1ccnc(Oc2ccccc2)c1, the melting point is reported as 241 to 243 °C.
Compound Cc1nn2cnnc2c(C)c1CCC(=O)O has a melting point of 253 to 255 °C.
In the case of NCc1ccc(N2CC=CC2)cc1, the melting point is reported as 74 to 76 °C.
For O=C(Nc1cccc(Cl)c1)OCC(F)(F)F, the melting point was 35 to 37 °C.
For CS(=O)(=O)Nc1ccc(CCl)cc1, the melting point was 107 to 109 °C.
For O=C(O)c1cccn1-c1cccc(I)c1, the melting point was 165 to 167 °C.
Cc1csc(=O)n1CCC(=O)O gave a melting point of 108 to 110 °C.
Cc1nn(-c2ccccc2)c(C(F)F)c1C(=O)O gave a melting point of 206 to 208 °C.
Work on Cc1nc(C(=O)O)nn1-c1ccccc1 yielded a melting point of 172 to 174 °C.
O=c1[nH]c(=O)c2ccccc2s1 gave a melting point of 292 to 294 °C.
For CN1CCc2cc(C=O)ccc21, the melting point was 38 to 40 °C.
With CC(NC(=O)c1ccccc1NC(=O)CCl)c1ccccc1 (stereo not drawn) the melting point was 118 to 120 °C.
Cc1nc(COc2ccc(/C=C/C(=O)O)cc2)cs1 gave a melting point of 185 to 187 °C.
CCOC(=O)C1=C(C)NC(=O)NC1CCl (stereo not drawn) showed a melting point of 169 to 171 °C.
For O=C(O)c1nc(-c2cccs2)n(-c2cccc(F)c2)n1, the melting point was 162 to 164 °C.
Cc1nn(CC(F)(F)F)c(C)c1CC(=O)O gave a melting point of 157 to 159 °C.
With O=C(O)C1(S(=O)(=O)c2ccc(Cl)cc2)CC1 the melting point was 185 to 187 °C.
O=C(O)CNC(=O)c1ccc(C(F)(F)F)cc1 gave a melting point of 154 to 156 °C.
Compound N#CCC(=O)c1cccc(Br)c1 has a melting point of 94 to 96 °C.
In the case of O=C(O)c1cc(N/N=C/c2ccccc2Br)ccc1Cl, the melting point is reported as 180 to 182 °C.
In the case of Nc1ccc(S(=O)(=O)NCc2ccco2)cc1, the melting point is reported as 180 to 182 °C.
With COc1ccc(NC(=O)c2ccccc2N)c(OC)c1 the melting point was 154 to 156 °C.
NNc1ncnc2sccc12 gave a melting point of 211 to 213 °C.
Work on OCc1ccc(F)c2cccnc12 yielded a melting point of 131 to 133 °C.
In the case of N#CC1=C(N)Oc2ccccc2C1, the melting point is reported as 143 to 145 °C.
Compound Nc1cccc(NC(=O)c2cccc(C(F)(F)F)c2)c1 has a melting point of 134 to 136 °C.
CCOc1ccc(C(=O)C(C)Cl)cc1 (stereo not drawn) gave a melting point of 62 to 64 °C.
N#CC(C(=O)N1CCCCC1)c1ccc(C(F)(F)F)cn1 (stereo not drawn) gave a melting point of 137 to 139 °C.
For Cc1nc(-c2nnc[nH]2)sc1C(=O)O, the melting point was 286 to 288 °C.
Compound Cc1ccc(-c2nn(Cc3ccccc3)cc2C(=O)O)cc1C has a melting point of 155 to 157 °C.
COc1ccc(Cl)cc1N1CC(C(=O)O)CC1=O (stereo not drawn) gave a melting point of 150 to 155 °C.
With Cc1nn(-c2ccccc2)c2ncc(C(=O)O)cc12 the melting point was 278 to 280 °C.
O=Cc1cccc(OCC(=O)O)c1 gave a melting point of 111 to 113 °C.
For O=C(O)CN1CCSC1=O, the melting point was 173 to 175 °C.
With NC(Cc1ccccc1)CN1CCOCC1 (stereo not drawn) the melting point was 54 to 56 °C.
In the case of NC(=S)N1CCCCCC1, the melting point is reported as 151 to 153 °C.
With CC(=O)Nc1cc(C#N)ccc1S(C)(=O)=O the melting point was 145 to 147 °C.
Compound COc1cc(C)c(C(C)=O)cc1C has a melting point of 74 to 76 °C.
Work on CCc1nnc(CO)n1C yielded a melting point of 41 to 43 °C.
c1nc(N2CCCC2)c2nc[nH]c2n1 showed a melting point of 302 to 304 °C.
O=C1CCOc2c(Cl)cc(Cl)cc21 gave a melting point of 86 to 88 °C.
For CS(=O)(=O)c1cccc(C(=O)c2ccc(F)cc2)c1, the melting point was 66 to 68 °C.
With CN(C)C(=O)CC(=O)O the melting point was 70 to 72 °C.
With CSc1ccc(OC(C)C(=O)O)cc1 (stereo not drawn) the melting point was 94 to 96 °C.
COC(=O)c1nsnc1C(=O)O gave a melting point of 82 to 84 °C.
Cc1cncc(N)c1 gave a melting point of 59 to 63 °C.
In the case of O=C(Cc1ccc(Br)cc1)Nc1ccccc1C(=O)O, the melting point is reported as 212 to 214 °C.
For CNC(C)C(=O)O (stereo not drawn), the melting point was 268 to 270 °C.
CC1CCCC(O)(CN)C1 (stereo not drawn) showed a melting point of 59 to 61 °C.
With CC(=O)c1ccc(CC(=O)O)cc1 the melting point was 109 to 111 °C.
With Cc1noc(N)c1C(=O)O the melting point was 150 to 154 °C.
For O=C(O)CCC(=O)NCC(=O)c1ccccc1F, the melting point was 156 to 158 °C.
In the case of O=Cc1cccc(NC(=O)C(F)(F)F)c1, the melting point is reported as 102 to 104 °C.
With Cc1cc(N)n(C(=O)OC(C)(C)C)n1 the melting point was 135 to 137 °C.
For COc1ccnc(Cl)n1, the melting point was 57 to 58 °C.
